Data on 1 compound can be found in patent US10323035B2, “Co-crystal of a CDK inhibitor and an MEK inhibitor and process of preparation thereof” (CRYSTAL PHARMATECH CO., LTD, priority 2015, dated 2019).

This series can be described thus: Pharmacokinetics in rats after oral administration. The format is in vivo. The note with it: male, SD, blood. As to the method:
Investigations on the pharmacokinetic characteristics of MEK162 free base single compound (group A), equimolar physical mixture of MEK162 and LEE011 succinate (group B) and co-crystal Form I of MEK162-LEE011 (group C) in the rats were conducted. Male SD rats with standard weight were chosen as experimental objects, three rats in a group and were orally administrated. The dosage in group A was 5 mg·kg^−1 (calculated as free base), the dosages of two components in group B were both 5 mg·kg^−1 (calculated as free base), the dosage in group C was 10 mg·kg^−1 (calculated as co-crystal anhydrate form), and dosage of these two components was around 5 mg·kg^−1 (calculated as free base) as calculated by molecular weight.

Take `Cn1cnc2c(F)c(Nc3ccc(Br)cc3F)c(C(=O)NOCCO)cc21` [MEK162, 5-[(4-bromo-2-fluorophenyl)amino]-4-fluoro-N-(2-hydroxyethoxy)-1-methyl-1H-benzimidazol-6-carboxamide]: the Tmax (5 mg·kg^−1, rat, read-out: time to reach maximum concentration (Tmax)) is 15 min. For the same compound, where the note is “rat, about 5 mg·kg^−1 of each component as free base, read-out: AUC0-inf of MEK162”, the AUC(0-inf) turned out to be 11300 ± 895 ng·h/mL. Also, under “rat, about 5 mg·kg^−1 of each component as free base, read-out: maximum concentration of blood drug (Cmax) of MEK162”, the Cmax came to 3240 ± 576 ng/mL.
